# Legend:
# [1] = molecular target: T1, cytochrome P450 2B6 (Homo sapiens, UniProt P20813, K262R/Y226H); assay: X-ray crystal structure; assay type: biochemical
# T1 sequence (P20813 29-491 Y226H/K262R): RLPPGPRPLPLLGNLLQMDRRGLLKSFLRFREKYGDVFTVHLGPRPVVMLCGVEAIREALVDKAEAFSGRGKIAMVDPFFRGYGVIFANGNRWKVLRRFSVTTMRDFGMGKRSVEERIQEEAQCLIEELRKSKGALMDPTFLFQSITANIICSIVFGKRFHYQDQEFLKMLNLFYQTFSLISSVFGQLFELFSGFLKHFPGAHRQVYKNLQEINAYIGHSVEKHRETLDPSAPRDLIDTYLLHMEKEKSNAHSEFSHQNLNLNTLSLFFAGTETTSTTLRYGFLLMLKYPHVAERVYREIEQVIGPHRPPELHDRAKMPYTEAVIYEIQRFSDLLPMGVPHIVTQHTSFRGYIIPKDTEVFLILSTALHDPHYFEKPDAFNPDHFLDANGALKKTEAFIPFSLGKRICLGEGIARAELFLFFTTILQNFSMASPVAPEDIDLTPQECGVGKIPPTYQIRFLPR
# [2] = molecular target: T2, cytochrome P450 2B4 (Oryctolagus cuniculus, UniProt P00178, H226Y); assay: X-ray crystal structure; assay type: binding
# T2 sequence (P00178 28-491 H226Y): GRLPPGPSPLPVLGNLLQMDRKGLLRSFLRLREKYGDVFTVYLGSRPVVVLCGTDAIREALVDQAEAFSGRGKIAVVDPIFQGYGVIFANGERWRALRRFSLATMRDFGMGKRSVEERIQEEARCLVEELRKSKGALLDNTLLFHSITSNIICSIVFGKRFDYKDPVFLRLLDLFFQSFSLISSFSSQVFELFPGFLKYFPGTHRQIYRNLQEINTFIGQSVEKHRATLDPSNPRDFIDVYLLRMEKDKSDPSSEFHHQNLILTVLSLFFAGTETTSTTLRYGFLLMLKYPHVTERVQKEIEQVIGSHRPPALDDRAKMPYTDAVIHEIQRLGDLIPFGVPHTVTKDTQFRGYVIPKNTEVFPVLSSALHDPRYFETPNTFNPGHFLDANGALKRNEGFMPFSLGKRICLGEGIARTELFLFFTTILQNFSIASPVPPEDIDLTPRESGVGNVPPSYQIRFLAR
compound,measurement,setting,value
CCOC(=O)C1=C(COCCN)NC(C)=C(C(=O)OC)C1c1ccccc1Cl (centres unmarked) [amlodipine],IC50,[1],1600 nM
same,Kd,[2],2060 nM

# Reference: paper PMC3485383 (Biochemistry, 2012)
